Measurements: patent US5171748A, “Benz[4,5]imidazole-containing angiotensin antagonists” (Imperial Chemical Industries plc, priority 1989, dated 1992)

Tests used:
[1] = molecular target: T1, AII receptors (cell surface membrane fraction, guinea pig adrenal gland) (Cavia porcellus, UniProt Q9WV26); experiment: Test A: displacement of radiolabelled AII binding to guinea pig adrenal membrane fraction; conditions: read-out: IC50 (concentration for 50% displacement of radiolabelled AII binding)
T1 construct: from tissue; host or cells: guinea pig adrenal gland, cell surface membrane fraction
T1 sequence (Q9WV26 1-359): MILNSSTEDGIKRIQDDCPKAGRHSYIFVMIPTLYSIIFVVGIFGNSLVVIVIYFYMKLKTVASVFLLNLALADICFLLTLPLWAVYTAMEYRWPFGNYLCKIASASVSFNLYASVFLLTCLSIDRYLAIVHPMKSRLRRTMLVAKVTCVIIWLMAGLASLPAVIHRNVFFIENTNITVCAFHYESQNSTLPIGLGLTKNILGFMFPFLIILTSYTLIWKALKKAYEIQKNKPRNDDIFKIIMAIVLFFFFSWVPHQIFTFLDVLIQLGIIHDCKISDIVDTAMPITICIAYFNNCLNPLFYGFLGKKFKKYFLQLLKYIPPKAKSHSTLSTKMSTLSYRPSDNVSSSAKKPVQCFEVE
Description: Test A: This in vitro procedure involves the incubation of the test compound initially at a concentration of 100 micromolar (or less) in a buffered mixture containing fixed concentrations of radiolabelled AII and a cell surface membrane fraction prepared from a suitable angiotensin target tissue. In this test, the source of cell surface membranes is the guinea pig adrenal gland which is well known to respond to AII. Interaction of the radiolabelled AII with its receptors (assessed as radiolabel bound to the particulate membrane fraction following removal of unbound radiolabel by a rapid filtration procedure such as is standard in such studies) is antagonized by compounds which also bind to the membrane receptor sites and the degree of antagonism (observed in the test as displacement of membrane-bound radioactivity) is determined readily by comparing the receptor-bound radioactivity in the presence of the test compound at the specified test concentration with a control value determined in the absence of the test compound. Using this procedure compounds showing at least 50% displacement of radiolabelled AII binding at a concentration of 10^-4 M are retested at lower concentrations to determine their potency. […]

[2] = tested on: angiotensin II-induced pressor responses; experiment: Test C: antagonism of angiotensin II-induced pressor responses in terminally-anaesthetised or conscious rats; assay type: in vivo; conditions: Rattus norvegicus, parenteral administration
Description: Test C: This in vivo test involves using terminally-anaesthetised or conscious rats in which an arterial catheter has been implanted under anaesthesia for the measurement of changes in blood pressure. The AII antagonistic effects of the test compound following oral or parenteral administration, are assessed against angiotensin II-induced pressor responses. To ensure that the effect is specific the effect of the test compound on vasopressin-induced pressor responses may also be determined in the same preparation.

[3] = molecular target: T2, AII-induced contractions of isolated rabbit aorta (Oryctolagus cuniculus, UniProt P34976); experiment: Test B: antagonism of AII-induced contractions of isolated rabbit aorta; assay type: cell-based; conditions: 37° C., read-out: pA2 (converted)
T2 construct: isolated rabbit aorta, maintained in a physiological salt solution; from tissue; host or cells: isolated rabbit aorta
T2 sequence (P34976 1-359): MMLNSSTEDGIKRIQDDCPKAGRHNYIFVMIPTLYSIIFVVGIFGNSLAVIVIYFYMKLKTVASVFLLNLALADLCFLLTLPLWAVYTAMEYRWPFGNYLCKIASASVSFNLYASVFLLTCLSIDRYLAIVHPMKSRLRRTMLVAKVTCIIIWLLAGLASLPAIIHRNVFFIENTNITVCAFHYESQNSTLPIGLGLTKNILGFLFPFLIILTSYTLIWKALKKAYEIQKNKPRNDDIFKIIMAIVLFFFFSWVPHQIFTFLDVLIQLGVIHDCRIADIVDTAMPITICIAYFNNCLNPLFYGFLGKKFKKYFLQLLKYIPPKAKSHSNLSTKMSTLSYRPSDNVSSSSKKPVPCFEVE
Description: Test B: This in vitro test involves the measurement of the antagonistic effects of the test compound against AII-induced contractions of isolated rabbit aorta, maintained in a physiological salt solution at 37° C. In order to ensure that the effect of the compound is specific to antagonism of AII, the effect of the test compound on noradrenaline-induced contractions may also be determined in the same preparation.

CCCCc1nc2ccccc2n1Cc1ccc(C(=O)NS(=O)(=O)c2ccccc2)cc1 [Example 3, 4-[(2-butyl-1H-benzimidazol-1-yl)methyl]-N-phenylsulphonylbenzamide]
IC50 [1]: 100 nM
ED50 [2]: 3 mg/kg
Kb [3]: 25.1 nM
